PubChem BioAssay (NCI)
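Exposure lasted 48 hours, with cells grown in 96-well plates and compounds tested at five concentrations. The concentration for 50% growth inhibition is given as GI50. TGI marks complete inhibition of growth.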

Columns and labels:
Experiment in all cases: NCI anticancer screen, dose series, 48 h
[1] = tested on: T-47D breast
[2] = tested on: ACHN renal
[3] = tested on: OVCAR-4 ovarian
[4] = tested on: SNB-19 CNS
[5] = tested on: HT29 colon
[6] = tested on: HOP-62 NSCLC
[7] = tested on: NCI-H460 lung
[8] = tested on: RPMI-8226 leukemia
[9] = tested on: BT-549 breast
[10] = tested on: IGROV1 ovarian
[11] = tested on: K-562 leukemia
[12] = tested on: NCI/ADR-RES ovarian
[13] = tested on: OVCAR-5 ovarian
[14] = tested on: SK-MEL-28 melanoma
[15] = tested on: SK-MEL-5 melanoma
[16] = tested on: SNB-75 CNS
[17] = tested on: SN12C renal
[18] = tested on: HS 578T breast
[19] = tested on: SW-620 colon
[20] = tested on: 786-0 renal
[21] = tested on: HCT-116 colon
[22] = tested on: CCRF-CEM leukemia
[23] = tested on: TK-10 renal
[24] = tested on: SR leukemia
[25] = tested on: LOX IMVI melanoma
[26] = tested on: HL-60(TB) leukemia
[27] = tested on: NCI-H23 lung
[28] = tested on: MOLT-4 leukemia
[29] = tested on: SF-539 CNS
[30] = tested on: CAKI-1 renal
[31] = tested on: HCC-2998 colon
[32] = tested on: SK-MEL-2 melanoma
[33] = tested on: MCF7 breast
[34] = tested on: SF-295 CNS
[35] = tested on: MDA-MB-435
[36] = tested on: SK-OV-3 ovarian
[37] = tested on: RXF 393 renal
[38] = tested on: DU-145 prostate
[39] = tested on: HOP-92 NSCLC
[40] = tested on: SF-268 CNS
[41] = tested on: OVCAR-8 ovarian
[42] = tested on: M14 melanoma
[43] = tested on: HCT-15 colon
[44] = tested on: MALME-3M melanoma
[45] = tested on: EKVX NSCLC
[46] = tested on: NCI-H522 lung
[47] = tested on: NCI-H226 lung
[48] = tested on: U251 CNS
[49] = tested on: UACC-62 melanoma
[50] = tested on: PC-3 prostate
[51] = tested on: MDA-MB-231 breast
[52] = tested on: UO-31 renal
[53] = tested on: A498 renal
[54] = tested on: COLO 205 colon
[55] = tested on: OVCAR-3 ovarian
[56] = tested on: UACC-257 melanoma
[57] = tested on: A549 NSCLC
[58] = tested on: KM12 colon

C=C1SC(=Nc2ccccc2Cl)N(C(=O)c2sc3ccccc3c2Cl)C1(C)C was tested, and the GI50 [1] was 3.09 µM, the TGI [1] was 26.8 µM and the GI50 [2] was 3.24 µM. For the same molecule, the TGI [2] was > 46 µM, the GI50 [3] was 5.54 µM and the TGI [3] was > 100 µM. For the same molecule, the GI50 [4] was 3.64 µM, the TGI [4] was > 100 µM and the GI50 [5] was 14.2 µM. The TGI [5] was 51.7 µM, the GI50 [6] was 10.5 µM and the TGI [6] was > 51.1 µM. The GI50 [7] was 4.14 µM, the TGI [7] was > 57.1 µM and the GI50 [8] was 2.44 µM. For the same molecule, the GI50 [9] was 10 µM, the TGI [9] was 49.2 µM and the GI50 [10] was 6.2 µM. The TGI [10] was > 100 µM, the GI50 [11] was 4.51 µM and the TGI [11] was > 37.4 µM. For the same molecule, the GI50 [12] was 3.71 µM, the TGI [12] was > 53 µM and the GI50 [13] was 10.9 µM. The TGI [13] was > 100 µM, the GI50 [14] was 37.2 µM and the TGI [14] was > 100 µM. It also gave a GI50 [15] of 6.65 µM, a TGI [15] of 25.2 µM and a GI50 [16] of 6.41 µM. For the same molecule, the TGI [16] was 97.4 µM, the GI50 [17] was 12.6 µM and the TGI [17] was > 100 µM. The GI50 [18] was 5.66 µM, the TGI [18] was 57.8 µM and the GI50 [19] was 4.68 µM. The TGI [19] was > 100 µM, the GI50 [20] was 25.4 µM and the TGI [20] was > 81.9 µM. For the same molecule, the GI50 [21] was 8.01 µM, the TGI [21] was > 44.5 µM and the GI50 [22] was 3.93 µM. The TGI [22] was > 25.3 µM, the GI50 [23] was 5.57 µM and the TGI [23] was 37.1 µM. The GI50 [24] was 7.1 µM, the TGI [24] was > 39.6 µM and the GI50 [25] was 9.62 µM. For the same molecule, the TGI [25] was > 100 µM, the GI50 [26] was 9.3 µM and the TGI [26] was > 100 µM. For the same molecule, the GI50 [27] was 4.41 µM, the TGI [27] was > 100 µM and the GI50 [28] was 3.47 µM. For the same molecule, the TGI [28] was > 25.4 µM, the GI50 [29] was 14 µM and the TGI [29] was > 100 µM. It also gave a GI50 [30] of 2.73 µM, a TGI [30] of 19.4 µM and a GI50 [31] of 8.54 µM. For the same molecule, the TGI [31] was > 45 µM, the GI50 [32] was 8.83 µM and the TGI [32] was 31.9 µM. The GI50 [33] was 3.76 µM, the TGI [33] was > 51.7 µM and the GI50 [34] was 2.07 µM. It also gave a TGI [34] of 10.7 µM, a GI50 [35] of 17.3 µM and a TGI [35] of 97 µM. For the same molecule, the GI50 [36] was 7.94 µM, the TGI [36] was 80.2 µM and the GI50 [37] was 16.6 µM. For the same molecule, the TGI [37] was > 86.5 µM, the GI50 [38] was 11.3 µM and the TGI [38] was > 100 µM. For the same molecule, the GI50 [39] was 3.47 µM, the TGI [39] was > 22.8 µM and the GI50 [40] was 12.9 µM. For the same molecule, the TGI [40] was > 100 µM, the GI50 [41] was 5.08 µM and the TGI [41] was > 100 µM. The GI50 [42] was 21 µM, the TGI [42] was > 69.9 µM and the GI50 [43] was 4.94 µM. For the same molecule, the TGI [43] was > 57.5 µM, the GI50 [44] was 2.01 µM and the TGI [44] was 34.6 µM. It also gave a GI50 [45] of 2.38 µM, a TGI [45] of 18.2 µM and a GI50 [46] of 3.03 µM. The TGI [46] was 26.8 µM, the GI50 [47] was 5.52 µM and the TGI [47] was > 74.2 µM. For the same molecule, the GI50 [48] was 4.12 µM, the TGI [48] was > 100 µM and the GI50 [49] was 9.24 µM. For the same molecule, the TGI [49] was > 100 µM, the GI50 [50] was 4.68 µM and the TGI [50] was > 100 µM. The GI50 [51] was 8.68 µM, the TGI [51] was 59.5 µM and the GI50 [52] was 3.64 µM. The TGI [52] was > 100 µM, the GI50 [53] was 4.04 µM and the TGI [53] was > 57.5 µM. It also gave a GI50 [54] of 3.49 µM, a TGI [54] of 11 µM and a GI50 [55] of 7.55 µM. For the same molecule, the TGI [55] was > 56.3 µM, the GI50 [56] was 29.2 µM and the TGI [56] was > 100 µM. The GI50 [57] was 4.5 µM, the TGI [57] was > 100 µM and the GI50 [58] was 4.01 µM. For the same molecule, the TGI [58] was > 51.9 µM.
